According to publication doi:10.1101/2025.05.27.656499v1 (biorxiv, 2025):

Legend:
[1] = biological target: human CD28 Protein, His Tag (Homo sapiens, UniProt P10747); assay: MST / TRIC; format: binding
[2] = biological target: Biotinylated human CD28 protein (His-tagged, AviTag) (Homo sapiens, UniProt P10747); assay: SPR; format: binding
Chain of Biotinylated human CD28 protein (His-tagged, AviTag) (P10747 19-152 limits assumed): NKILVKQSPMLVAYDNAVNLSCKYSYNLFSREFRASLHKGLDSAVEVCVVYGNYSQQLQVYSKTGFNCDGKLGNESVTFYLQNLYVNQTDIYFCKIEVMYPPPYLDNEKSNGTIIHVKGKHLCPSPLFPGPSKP

Chain of human CD28 Protein, His Tag (P10747 19-152): as the sequence (P10747 19-152 limits assumed) above

Row | Structure (SMILES) | Kd [1] | Kd [2]
1 | CN1c2ccc([N+](=O)[O-])cc2N=C(c2ccc(C(=O)O)cc2)c2cc3c(cc21)C(C)(C)CCC3(C)C [1K19, HX531] | 245 ± 151 µM | 
2 | Nc1c(C(=O)O)c2nc3c(C(=O)O)cccc3oc-2cc1=O [1O03, Cinnabarinic acid] | 14.6 ± 8.23 µM | 
3 | O=C(Cc1ccccc1)c1cc(O)c(O)c([N+](=O)[O-])c1 [1F19, Nebicapone] | 45.1 ± 68.9 µM | 

Further molecules by falling Kd [1], results first:

Row | Kd [1] | Kd [2] | Structure (SMILES)
4 | 283 ± 398 µM |  | CC(C)=CCC/C(C)=C/CC/C(C)=C/C=C/C(C)=C/C(=O)O [2L10, Peretinoin]
5 | 236 ± 110 µM | 181 ± 53 µM | Cc1nc(C#Cc2ccnc(Cl)c2)c(C)n1-c1ccc(OC(F)(F)F)cc1 [2B10, CTEP]
6 | 45.6 ± 52.1 µM |  | CCN(CC)C(=O)/C(C#N)=C/c1cc(O)c(O)c([N+](=O)[O-])c1 [1I03, Entacapone]
7 | 8.37 ± 4.42 µM |  | CNc1nc2ccccc2n2c(-c3ccc(O)c(O)c3)cnc12 [2B06, EAPB 02303]
